# Laboratory results: patent US20170314007A1, “MEDICAMENT DESIGN POCKET OF ORNITHINE DECARBOXYLASE AND APPLICATION OF MEDICAMENT DESIGN POCKET” (CHINA THREE GORGES UNIVERSITY, priority 2014, published 2017)
# Molecular target: T1, human ODC (Homo sapiens, UniProt P11926)
# T1 construct: His tag (from pET28a); made in house; host or cells: Escherichia coli BL21
# T1 sequence (P11926 1-461): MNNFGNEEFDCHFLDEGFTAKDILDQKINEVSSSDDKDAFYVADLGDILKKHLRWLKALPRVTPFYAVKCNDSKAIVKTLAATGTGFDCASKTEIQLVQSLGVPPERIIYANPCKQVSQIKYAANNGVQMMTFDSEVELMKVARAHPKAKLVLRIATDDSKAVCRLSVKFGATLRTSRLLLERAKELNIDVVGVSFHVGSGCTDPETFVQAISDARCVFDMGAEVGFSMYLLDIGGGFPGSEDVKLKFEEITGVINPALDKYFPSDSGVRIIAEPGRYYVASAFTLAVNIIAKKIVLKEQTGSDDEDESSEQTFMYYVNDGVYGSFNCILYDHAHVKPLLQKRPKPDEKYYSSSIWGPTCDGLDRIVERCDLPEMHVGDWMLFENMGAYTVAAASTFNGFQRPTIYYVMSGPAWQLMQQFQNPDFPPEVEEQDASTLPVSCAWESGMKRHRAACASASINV
# Test: Detection of inhibitory activity of inhibitor for human ODC protein (absorbance at 426 nm, ODC inhibition ratio)
# Format: biochemical
# Conditions: for inhibitory capacity on human ODC compared with DFMO: 1 mM of the medicament, comparison of histograms with DFMO inhibitor
# Method: 400 uL substrate reaction mixture and 50 ug ODC protein are added to EP tube, mixed evenly, and the EP tube is placed in 37° C. water bath for 30 min; 400 uL 10% TDA is added to terminate the reaction, centrifuged 5 min at 5000 rpm at room temperature, then 100 uL supernatant is fetched and mixed with 200 uL of 4 mol/L NaOH, 400 uL of n-amyl alcohol is added to mix well, centrifuged 5min at 2000 rpm, then 200 uL of the supernatant is transferred to a new EP tube, and 200 uL of 0.1 mol/L sodium tetraborate (pH 8.0) is added to mix evenly, and 200 uL of 10 mmol/L trinitrobenzene sulfonic acid is added to mix fully, and then 400 uL DMSO is added to fix fully for 1 min, centrifuged 5 min at 3000 rpm; finally the supernatant is fetched to 96-well plate and its absorbance at 426 nm is detected by a microplate reader, to get the OD value with out adding […];
# According to the method described in step 4), after adding 400 μL substrate reaction mixture, the ODC inhibitor is added immediately, and subsequent procedures are the same as the step 4);
# The ODC inhibition ratio is calculated according to the following formula;
# Control difference=the mean OD value of the control group adding the inhibitor−the mean OD value of the control group without adding inhibitor, of which, the inhibitor added in step 5) in the control group is DFMO inhibitor;
# Experimental difference= the mean OD value of the experiment group adding the inhibitor−the mean OD value of the experiment group without adding inhibitor.
# ODC inhibition ratio=[(control difference-experimental difference)/control difference]×100%.
# The substrate reaction mixture in step 4): dissolve 17.57 ul β-mercaptoethanol, 55.84mg of 1.5 mM EDTA disodium salt, 75 nM PLP stock solution and 2 mM ornithine hydrochloride in 150 mM PBS (pH 7.1).
# 400 uL substrate reaction mixture (17.57 ul of β-mercaptoethanol, 55.84 mg of 1.5 mM EDTA disodium salt, 75 nM PLP stock solution, 2 mM ornithine hydrochloride are dissolved in 150 mM PBS (pH 7.1)) and 50 ug ODC protein are added to a 1.5 mL of EP tube, mixed evenly, and the EP tube is placed in 37° C water bath for 30 min; 400 uL 10% TDA is added to terminate the reaction, centrifuged 5 min at 5000 rpm at room temperature, then 100 uL supernatant is fetched and mixed with 200 uL of 4 mol/L NaOH, 400 uL of n-amyl alcohol is added to mix well, centrifuged 5 min at 2000 rpm then 200 uL of the supernatant is transferred to a new EP tube, and 200 uL of sodium tetraborate (0.1 mol/L, pH 8.0) is added to mix evenly, and 200 uL of 10 mmol/L trinitrobenzene sulfonic acid is added to mix fully, and then 400 uL DMSO is added to fix fully for 1 min, centrifuged 5 min at 3000 rpm, finally the supernatant is fetched to 96-well plate and its absorbance at 426 nm is detected by a microplate reader. […]
Compound,inhibitory capacity on human ODC compared with DFMO,also measured
N#Cc1ccc(C2Nc3cccc4cccc(c34)N2)cc1,–,"inhibitory activity on human ODC (concentration range 1 nM-5 mM, histogram FIG. 5): has the ability to inhibit human ODC activity within the range of 1 nM-5 mM, and the higher the concentration, the stronger tire inhibitory ability"
"CN(C)c1ccc(/C=N/Nc2nc(N)nc(N)n2)cc1 [4-(dimethylamino)-benzaldehyde-(4,6-diamino-1,3,5) triazine]",–,"inhibitory activity on human ODC (concentration range 1 nM-1 mM, histogram FIG. 9, compared with DFMO): has inhibitory effect on human ODC activity within the concentration range of 1 nM-1 mM"
"CCOC(=O)c1cccc(NC(=O)c2ccccc2)c1 [D17, ethyl-3-(benzoylamino) methyl benzoate]",equivalent to that of 2.5 mM DFMO,–
"COc1ccc(C(=O)C[n+]2ccccc2/C=N/[O-])cc1 [D19, 2-[(hydroxyimino)methyl]-1-[2-(4-methoxyphenyl)-2-oxoethyl] pyridinium]",equivalent to that of 2.5 mM DFMO,–
